Measured values: publication PMC9579956 (RSC Medicinal Chemistry, 2022)

Molecular target: Mycobacterium thermoresistible (Mtr) LpqY (Mycolicibacterium thermoresistibile, UniProt G7CES0)
Type: binding
Settings: compound 100 μM, LpqY 500 nM, 10% DMSO, duplicate

Sequence of Mycobacterium thermoresistible (Mtr) LpqY (G7CES0 29-471): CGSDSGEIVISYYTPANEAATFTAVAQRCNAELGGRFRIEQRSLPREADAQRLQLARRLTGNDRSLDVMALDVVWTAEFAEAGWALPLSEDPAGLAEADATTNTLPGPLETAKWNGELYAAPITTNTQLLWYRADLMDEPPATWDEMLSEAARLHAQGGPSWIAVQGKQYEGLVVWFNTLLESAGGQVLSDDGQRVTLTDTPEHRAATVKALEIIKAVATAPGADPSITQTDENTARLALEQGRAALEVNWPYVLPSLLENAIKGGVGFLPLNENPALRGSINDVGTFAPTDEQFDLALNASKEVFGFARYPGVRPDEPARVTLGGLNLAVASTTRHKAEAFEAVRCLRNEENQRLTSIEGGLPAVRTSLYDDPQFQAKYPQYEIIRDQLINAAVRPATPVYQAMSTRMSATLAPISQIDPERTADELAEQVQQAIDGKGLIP

SMILES	Screen signal/noise ratio (MST S/N)
COc1cc(C2=NCCN2)ccc1-c1cn(-c2cccc(C3=NCCN3)c2)nn1 [MMV688407, 4-[4-(4,5-dihydro-1H-imidazol-2-yl)-2-methoxyphenyl]-1-[3-(4,5-dihydro-1H-imidazol-2-yl)phenyl]triazole]	8.0

Same assay, conditions: single dose MST screen against LpqY

SMILES	Pathogen Box screen signal/noise ratio
Cc1cccc(NC(=O)c2cc(S(=O)(=O)N(C)c3ccc(F)cc3)ccc2Cl)n1 [MMV676528]	1.1
Nc1c2c(nc3sc4c(c13)CCCC4)CCCC2 [MMV676588]	0.449
O=C(NC1CC1)c1ccc(CSCc2ccccc2Cl)o1 [MMV007803]	0.148
Cc1[nH]c2ccccc2c1C(c1cccs1)N1CCN(C)CC1 (stereo not shown) [MMV688768]	2.1
COc1cccc(CC(=O)N2CCC(n3c(C)nc4ccc(F)cc43)CC2)c1 [MMV020081]	0.152
O=C(N[C@H](Cc1ccccc1)C(=O)Nc1ccccc1N1CCOCC1)c1cccs1 [MMV688845]	1.6
Clc1cccc(CO[C@H]2CCc3ccccc3[C@@H]2n2ccnn2)c1 [MMV676159]	1.0
Cc1nn(C(=O)Nc2cccc(C(F)(F)F)c2)c(C)c1Sc1ncccn1 [MMV688552]	0.8
CS(=O)(=O)N1CCC(Cn2nc(Cc3cccc4ccccc34)c3c(N)ncnc32)CC1 [MMV676050]	0.8
COc1cccc(-c2nc3c(N4CCCC4)cccc3n2CC2CCCN2)n1 (stereo not shown) [MMV687703]	1.3
NS(=O)(=O)c1cncc(-c2ccc3nccc(-c4cn[nH]c4)c3n2)c1 [MMV024101]	0.429
c1ccc(-c2cc(N3CCCCC3)c3ccccc3n2)nc1 [MMV560185]	0.7
CCn1cnc2c(Nc3cc(F)cc(F)c3)nc(C#N)nc21 [MMV676881]	0.536
COc1cc(C2=NCCN2)ccc1-c1cn(-c2cccc(C3=NCCN3)c2)nn1 [MMV688407, 4-[4-(4,5-dihydro-1H-imidazol-2-yl)-2-methoxyphenyl]-1-[3-(4,5-dihydro-1H-imidazol-2-yl)phenyl]triazole]	8.0
CNC(=O)c1cc(S(=O)(=O)N2CCN(c3ccccn3)CC2)cs1 [MMV020136]	0.5
O=C(C(Cc1c[nH]c2ccccc12)NS(=O)(=O)c1ccc(Cl)cc1)N1CCCCC1 (stereo not shown) [MMV085210]	2.9
CNC(=O)C1Cc2ccccc2N1C(=O)Cc1ccc(F)cc1 (stereo not shown) [MMV188296]	1.9
Cc1ccc2c(c1C)NC(=O)C21NN=C(c2ccccc2)S1 (stereo not shown) [MMV019189]	1.4
CN(C(=O)c1cc2c(-c3cncnc3)cccc2[nH]1)c1ccccc1 [MMV024443]	-0.0357
CCc1ccccc1-n1c(C)cn2c3c(=O)n(C(C(=O)OC)C(C)C)c(=O)n(C)c3nc12 (stereo not shown) [MMV688550]	0.222
CO[C@H]1/C=C/O[C@@]2(C)Oc3c(C)c(O)c4c(O)c(/c(=C/NN5CCN(C)CC5)c(O)c4c3C2=O)=N\C(=O)/C(C)=C\C=C/[C@H](C)[C@H](O)[C@@H](C)[C@@H](O)[C@@H](C)[C@H](OC(C)=O)[C@@H]1C [MMV688775]	1.1
Cc1ccc(S(=O)(=O)Nc2ccc(CN3CCN(C(=O)c4cccc(C#N)c4)CC3)cc2)cc1 [MMV689028]	-0.5
CCOc1ccc(OCC(=O)Nc2cc(C)cc(C)c2)cc1 [MMV676470]	0.2
c1cc(C2=NCCN2)cc(-c2cc(-c3ccc(C4=NCCN4)cc3)no2)c1 [MMV688361]	0.271
COc1cncc(-c2cncc(N3CCN(c4ccncc4)CC3)n2)c1 [MMV085071]	1.2
Cc1cc(Nc2ccncc2)n2nc(C)c(-c3ccccc3Cl)c2n1 [MMV016136]	1.7
c1coc(CNc2nc(N3CCCCC3)nc3ccccc23)c1 [MMV676401]	1.9

SMILES	Pathogen Box screen signal/noise ratio
CC1=Nc2ccc(Cl)cc2C(c2ccccc2)N1CCNC(=O)CN(C)C (stereo not shown) [MMV688410]	0.5
CC(=O)N1CCN(c2ccc(Oc3ccc(Cl)cc3O)cc2)CC1 [MMV688330]	1.8
Cc1cc(OCC(=O)NCc2ccccc2)c2cc(Br)ccc2n1 [MMV687747]	0.856
CS(=O)(=O)c1ccc(C(=O)N(CC2CCCO2)c2nc3ccccc3s2)cc1[N+](=O)[O-] (stereo not shown) [MMV688761]	0.6
COc1ccc(Cn2cnc3c(-c4ccco4)nc(Cl)nc32)cc1 [MMV687170]	1.0
O=C(C1CCN(c2nnnn2-c2ccccc2)CC1)N1CCc2ccccc2C1 [MMV009135]	1.2
Cc1cc(Cl)c(S(=O)(=O)N2CCCC2)cc1OCC(=O)NC1CCCCC1 [MMV006833]	1.6
Cc1cc(NCC(C)C)c2n[nH]c(-c3ccccc3)c2n1 [MMV021375]	0.9
C[C@H]1COc2c(N3CCN(C)CC3)c(F)cc3c(=O)c(C(=O)O)cn1c23 [MMV687798]	0.9
CNc1snc(C)c1C(=O)NCCOc1ccc(OC)cc1 [MMV688554]	0.8
Cc1ccccc1C(=O)N1N=C(Nc2ccccc2)SC1(C)C [MMV688771]	0.4
COc1cccc(-n2nnnc2S(C)(=O)=O)c1 [MMV272144]	0.7
c1ccc(Oc2ccc(-c3cncc(-c4ccc5[nH]ccc5c4)n3)cc2)cc1 [MMV688178]	1.0
NCCCC(N)(C(=O)O)C(F)F (stereo not shown) [MMV001625]	0.316
CCC(=O)Nc1ccccc1C(=O)Nc1ccccn1 [MMV202553]	1.4
Cc1nnc(NCc2cccc(Cl)c2)c2ccccc12 [MMV676555]	0.9
CC(c1cc(Cl)cc(Cl)c1)N(C)c1ncc2c(N)nc(N)nc2n1 (stereo not shown) [MMV689437]	0.187
C[C@@H]1[C@H](O)[C@@H](C)/C=C/C=C/C=C/C=C/C=C/C=C/C=C/[C@H](O[C@@H]2O[C@H](C)[C@@H](O)[C@H](N)[C@@H]2O)C[C@@H]2O[C@](O)(C[C@@H](O)C[C@@H](O)[C@H](O)CC[C@@H](O)C[C@@H](O)CC(=O)O[C@H]1C)C[C@H](O)[C@H]2C(=O)O [MMV689000]	1.1
Cc1ccc2nc(C)c(-c3ccn(Cc4ccccc4)n3)n2c1 [MMV688939]	-0.2
NS(=O)(=O)c1cccc(-c2ccc3ncc(N4CCOCC4)nc3c2)c1 [MMV023860]	1.6
CN1CCN(c2nccc3nc(-c4ccc(F)c(F)c4)[nH]c23)CC1 [MMV676260]	0.635
O=C1N(Cc2cc3ccccc3s2)CC2CN(Cc3ccccc3)CCN12 (stereo not shown) [MMV084603]	1.3
O=C1O[C@@H](COc2ccon2)CN1c1cc(F)c(C2=CCN(Cc3ccccc3)CC2)c(F)c1 [MMV687813]	1.0
Cc1cccc(Cn2ccc(NC(=O)c3ccc4c(c3)OCO4)n2)c1 [MMV676386]	2.9
Clc1ccc(CN2CCN(C3=NCCN3)CC2)cc1Cl [MMV689060]	0.464
CCCCN(CCCC)c1c(C#N)cc(S(=O)(=O)Nc2ccccc2)cc1C#N [MMV688467]	0.7
COc1ccc(-c2cnc3cnc(-c4cccc(OC(C)C)c4)cn23)cc1 [MMV688270]	0.0179
